# Assay results reported in article PMC6273353, “Design, Synthesis and Evaluation of Novel Tacrine-Ferulic Acid Hybrids as Multifunctional Drug Candidates against Alzheimer’s Disease” (Molecules, 2016).
# Columns and labels:
# Aβ (1–42) = molecular target: T1, Aβ (1–42) (Homo sapiens, UniProt P05067); assay: Inhibition of self-induced Aβ (1–42) aggregation, thioflavin T-based fluorometric assay; format: biochemical; details: 20 μM compounds, 20 μM Aβ (1–42), 37 °C, 48 h; mean ± SD
# T1 construct: An amount of 250 μg Aβ (1–42) was dissolved; purchased Sigma-Aldrich
# Experimental: TFAs 8a–e were tested for their ability to inhibit self-induced Aβ (1–42) aggregation by a thioflavin T-based fluorometric assay, and curcumin and ferulic acid were used as reference compounds.
# An amount of 250 μg Aβ (1–42) was dissolved in 1 mL hexafluoroisopropanol (HFIP) and lyophilizated, then dissolved in 25 μL DMSO and 150 μL 50 mM phosphate buffer saline (PBS). For the self-induced assay, 10 μL of Aβ (1–42) was incubated with 10 μL test compounds, both at a final concentration of 20 μM, at 37 °C for 48 h. Then, 40 μL PBS and 100 μL 5 μM thioflavin T (ThT) in 50 mM glycine-NaOH buffer (pH 8.5) was added. […] The percent inhibition of the self-induced aggregation due to the presence of the test compound was calculated by the following expression: 100 − (IFi/IF0 × 100) where IFi and IF0 are the fluorescence intensities with and without test compound, respectively, minus the fluorescence intensities due to the respective blanks.
# BuChE = molecular target: T2, BuChE (Homo sapiens, UniProt P06276); assay: biochemical; details: mean ± SD of three independent experiments
# T2 construct: purchased Sigma-Aldrich
# Experimental: (§1) Five different concentrations (10^−4–10^−9 M) of each compound were tested for the inhibitory activity for AChE and BuChE. 10 μL 0.86 U/mL AChE or BuChE, 60 μL 0.1 M phosphate buffer (pH 8.0), and 10 μL test compounds were incubated together at 37 °C for 10 min. An amount of 20 μL 10 mmol/L […] or butylthicoline iodide was added and the solution was incubated at 37 °C for 10 min again. Then 20 μL 5 mmol/L 5,5′-dithiobis-(2-nitrobenzoic acid) (DTNB) and 30 μL 1% sodium dodecyl sulfatesodium salt (SDS) were added. […] Each concentration was analyzed three times, and the IC50 value was calculated from the concentration-inhibition response curve on logarithmic scale.
# AChE [1] = molecular target: T3, AChE (Homo sapiens, UniProt P22303); assay: biochemical; details: for Selectivity Index: Selectivity index = IC50 (BuChE)/IC50 (AChE); for IC50: mean ± SD of three independent experiments
# T3 construct: purchased Sigma-Aldrich
# Experimental: as §1
# [2] = Cu2+-chelating properties assay by UV spectrometry; format: physicochemical; details: 8d 40 μM with 10, 20, 40 μM CuCl2 in MeOH, UV 220–400 nm
# Experimental: In recent years, there is mounting evidence to support the theory that endogenous copper can be involved as factors or cofactors in the etiopathogenesis of AD, and modulating Cu^2+ in the brain should be to the benefit of AD treatment. The chelating effect of 8d for Cu^2+ was studied by ultra violet (UV) spectrometry with wavelength ranging from 220 to 400 nm.
# The complexing studies were determined using a UV spectrophotometer (Beckman Coulter Inc., Brea, CA, USA). Compound 8d (40 µM) in methanol was mixed with 10, 20, 40 µM CuCl2, and then incubated at room temperature for 5 min. The absorption spectra were recorded from 220 nm to 400 nm after incubation.
# Neuro-2A cells = assay: Protective effect against Aβ-induced neurotoxicity, MTT viability assay; format: cell-based; details: 8d 5 or 10 μM with 10 μM Aβ (1–42), 48 h, p < 0.05
# Experimental: To investigate the protective effect of 8d against Aβ-induced cytotoxicity, 8d (0, 5 or 10 μM) and 10 μM Aβ (1–42) was directly added into the medium of the Neuro-2A cells. The cells were incubated for 48 h.
# Neuro-2A cell were grown in dulbecco’s modified eagle medium (DMEM) plus 1% glutamine and 10% heat-inactivated fetal bovine serum. The assays were performed in 96-well microtiter plates. Cells were treated with or without lyophilizated Aβ (1–42) (10 μM), or different concentrations of 8d (5, 10 μM) combination and incubated for 48 h. Then, 10 µL of MTT (5 mg/mL) was added to each well and incubated for four hours, and then the liquid in the wells was removed. DMSO (150 µL) was added to each well. The absorbance was recorded using a microplate reader at a wavelength of 570 nm.
# Neuroprotective effect of 8d were evaluated by cells treated with 8d at the concentration of 0, 5 or 10 μM in the presence of 10 μM Aβ for 48 h; Vehicle group was treated with solvent. The cell viability was assessed using the 3-[4,5-dimethylthylthiazol-2-yl]-2,5 diphenyltetrazoliumbromide (MTT) assay. Data are from three independent experiments and are expressed as the mean ± SD values. ** p < 0.01 compared to vehicle. * p < 0.05, represents significant differences from the control group.
# AChE [3] = molecular target: T3, AChE; assay: Kinetic analysis of AChE inhibition (Lineweaver-Burk); format: biochemical; details: Lineweaver-Burk reciprocal plots, six substrate concentrations
# Experimental: Kinetic characterization of AChE was performed as the reported method using six different substrate concentrations (50, 90, 150, 266, 452, and 904 μM). An amount of 60 µL PBS, 20 µL DTNB, 10 µL AChE, and 10 µL inhibitor were mixed together and pre-incubated for 10 min, followed by the addition of 20 μL different substrate and then incubated for 15 min. After that, 30 μL 1% SDS was added. Kinetic characterization of the hydrolysis of acetylthiocholine chloride catalyzed by AChE was done spectrometrically at 415 nm. A parallel control with no inhibitor in the mixture, allowed adjusting activities to be measured.
# T2 sequence (P06276 29-602): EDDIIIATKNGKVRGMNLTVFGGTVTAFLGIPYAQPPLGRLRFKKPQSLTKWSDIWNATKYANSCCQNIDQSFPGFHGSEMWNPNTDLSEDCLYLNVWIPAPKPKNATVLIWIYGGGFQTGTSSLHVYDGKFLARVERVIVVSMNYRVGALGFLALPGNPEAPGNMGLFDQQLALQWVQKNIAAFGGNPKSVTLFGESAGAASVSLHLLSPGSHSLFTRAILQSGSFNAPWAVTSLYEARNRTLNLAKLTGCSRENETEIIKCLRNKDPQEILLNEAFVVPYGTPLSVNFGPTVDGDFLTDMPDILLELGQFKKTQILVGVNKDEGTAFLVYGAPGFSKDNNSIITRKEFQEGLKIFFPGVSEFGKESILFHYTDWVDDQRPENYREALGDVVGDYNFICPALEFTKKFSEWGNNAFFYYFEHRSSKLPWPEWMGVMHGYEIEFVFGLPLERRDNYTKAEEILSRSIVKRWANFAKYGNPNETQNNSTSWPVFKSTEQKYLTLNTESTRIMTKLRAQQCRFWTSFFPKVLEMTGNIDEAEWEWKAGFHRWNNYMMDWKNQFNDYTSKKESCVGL
# T3 sequence (P22303 32-614): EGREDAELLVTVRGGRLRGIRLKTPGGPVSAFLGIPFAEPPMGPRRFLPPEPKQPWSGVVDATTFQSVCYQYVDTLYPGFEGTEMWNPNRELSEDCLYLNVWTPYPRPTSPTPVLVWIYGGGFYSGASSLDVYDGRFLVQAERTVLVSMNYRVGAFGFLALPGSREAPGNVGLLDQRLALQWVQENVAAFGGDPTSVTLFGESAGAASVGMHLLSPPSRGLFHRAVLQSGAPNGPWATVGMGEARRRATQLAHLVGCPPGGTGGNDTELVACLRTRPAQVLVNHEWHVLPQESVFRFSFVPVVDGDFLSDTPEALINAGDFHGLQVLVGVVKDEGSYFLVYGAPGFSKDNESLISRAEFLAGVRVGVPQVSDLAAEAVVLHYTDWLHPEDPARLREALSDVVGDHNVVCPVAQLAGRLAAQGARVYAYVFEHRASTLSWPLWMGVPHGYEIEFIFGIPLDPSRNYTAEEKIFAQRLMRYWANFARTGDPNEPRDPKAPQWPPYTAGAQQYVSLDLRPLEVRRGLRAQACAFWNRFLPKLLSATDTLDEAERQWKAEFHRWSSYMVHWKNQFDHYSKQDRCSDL
# T1 sequence (P05067 672-713): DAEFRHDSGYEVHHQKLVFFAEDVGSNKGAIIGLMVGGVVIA
Structure (SMILES),inhibition at 20 µM (Aβ (1–42)),IC50 (BuChE),Selectivity Index (AChE [1]),IC50 (AChE [1]),chelating effect for Cu^2+ (in words) [2],cell viability compared with Aβ-treated alone group (in words) (Neuro-2A cells),mechanism of AChE inhibition (AChE [3])
"COC(=O)/C=C/c1ccc(OCCN2CCN(CC(=O)Nc3c4c(nc5ccccc35)CCCC4)CC2)c(OC)c1 [Compound 8a, Methyl (E)-3-(3-methoxy-4-(2-(4-(2-oxo-2-((1,2,3,4-tetrahydroacridin-9-yl)amino)ethyl)piperazin-1-yl)ethoxy)phenyl)acrylate]",26.1 ± 4.5%,203 ± 35.7 nM,0.660,306 ± 12.4 nM,,,
"COC(=O)/C=C/c1ccc(OCCCN2CCN(CC(=O)Nc3c4c(nc5ccccc35)CCCC4)CC2)c(OC)c1 [Compound 8b, Methyl (E)-3-(3-methoxy-4-(3-(4-(2-oxo-2-((1,2,3,4-tetrahydroacridin-9-yl)amino)ethyl)piperazin-1-yl)propoxy)phenyl)acrylate]",19.5 ± 2.7%,120 ± 12.5 nM,1.326,90.3 ± 7.3 nM,,,
"COC(=O)/C=C/c1ccc(OCCCCN2CCN(CC(=O)Nc3c4c(nc5ccccc35)CCCC4)CC2)c(OC)c1 [Compound 8c, Methyl (E)-3-(3-methoxy-4-(4-(4-(2-oxo-2-((1,2,3,4-tetrahydroacridin-9-yl)amino)ethyl)piperazin-1-yl)butoxy)phenyl)acrylate]",18.5 ± 4%,215 ± 33.7 nM,4.087,52.7 ± 8.2 nM,,,
"COC(=O)/C=C/c1ccc(OCCCCCN2CCN(CC(=O)Nc3c4c(nc5ccccc35)CCCC4)CC2)c(OC)c1 [Compound 8d, Methyl (E)-3-(3-methoxy-4-((5-(4-(2-oxo-2-((1,2,3,4-tetrahydroacridin-9-yl)amino)ethyl)piperazin-1-yl)pentyl)oxy)phenyl)acrylate]",37.2 ± 0.9%,107 ± 13.1 nM,1.733,61.7 ± 5.2 nM,complex 8d-Cu^2+ had been produced,significant dose-dependent increase in cell viability,mixed-type inhibitors
"COC(=O)/C=C/c1ccc(OCCCCCCN2CCN(CC(=O)Nc3c4c(nc5ccccc35)CCCC4)CC2)c(OC)c1 [Compound 8e, Methyl (E)-3-(3-methoxy-4-((6-(4-(2-oxo-2-((1,2,3,4-tetrahydroacridin-9-yl)amino)ethyl)piperazin-1-yl)hexyl)oxy)phenyl)acrylate]",35.1 ± 3.2%,196 ± 3.5 nM,1.059,184 ± 15.2 nM,,,
"COc1cc(/C=C/C(=O)CC(=O)/C=C/c2ccc(O)c(OC)c2)ccc1O [curcumin, reference compound]",37.3 ± 1.2%,,,,,,
COc1cc(/C=C/C(=O)O)ccc1O [ferulic acid],36.5 ± 3.6%,,,,,,
